# Columns and labels:
# [1] = tested on: Total IgG; test: Autoantibody production, sandwich ELISA: Total IgG; format: cell-based, mouse
# [2] = tested on: IgG1; test: Autoantibody production, sandwich ELISA: IgG1; format: cell-based, mouse
# [3] = tested on: IgG2; test: Autoantibody production, sandwich ELISA: IgG2; format: cell-based, mouse
# [4] = tested on: IL-17; test: Production of inflammatory cytokines, ELISA: IL-17, mouse spleen cells; format: cell-based
# [5] = tested on: IL-17; test: Production of inflammatory cytokines, ELISA: IL-17, lymphocytes of human peripheral blood; format: cell-based; details: D: Lymphocytes of human peripheral blood
# Method: (§1) Further, in a lupus-developed mouse model, a sanroque mouse used in a lupus model in the art was used and the human P.B group was used by obtaining lymphocytes from the human peripheral blood. The isolation of spleen cells and the isolation of lymphocytes from each mouse and the human peripheral blood were performed by a general method which was widely known in the art and the obtained cells were incubated for 72 h under the anti-CD3 0.5 μg/ml stimulation condition, activated, and then used.
# (§2) In order to verify whether the novel compounds of the present invention have an effect on inflammation and the production of inflammatory cytokines as cause substances of the immune diseases, the inventors analyzed the production degree of IL-17, IL-6, TNF-α, IFN-γ, MMP-9, and STAT-3 and the expression degree of mRNA of these cytokines by targeting each test group. The production degree of the inflammatory cytokines was analyzed through an ELISA after obtaining a supernatant by targeting cells which were treated with the compound of the present invention and incubated, and particularly, the cells reacted with cytokine-specific antibodies anti-IL-17, anti-IL-6, anti-TNF-α, anti-IFN-γ, anti-MMP-9, and anti-STAT-3 all night at […] and then non-specific binding was blocked with a blocking solution (1% BSA/PBST). Thereafter, each biotinylated antibody was reacted at room temperature for 2 hrs, washed four times, and then reacted at room temperature for 2 hrs after diluting and adding an extravidin-alkaline phosphatase conjugate. Thereafter, a PNPP/DEA solution was added and colored, and then the absorbance was measured at a wavelength of 405 nm.
# [6] = tested on: IL-6; test: Production of inflammatory cytokines, ELISA: IL-6, mouse spleen cells; format: cell-based
# [7] = tested on: TNF-a; test: Production of inflammatory cytokines, ELISA: TNF-a, mouse spleen cells; format: cell-based
# [8] = tested on: IFN-r; test: Production of inflammatory cytokines, ELISA: IFN-r, mouse spleen cells; format: cell-based
# [9] = tested on: IFN-r; test: Production of inflammatory cytokines, ELISA: IFN-r, lymphocytes of human peripheral blood; format: cell-based; details: D: Lymphocytes of human peripheral blood
# Method: as §1, §2
# [10] = tested on: TNF-a; test: Inflammatory gene expression, RT-PCR: TNF-a; format: cell-based, mouse; details: control = 1
# [11] = tested on: MMP-9; test: Inflammatory gene expression, RT-PCR: MMP-9; format: cell-based, mouse; details: control = 1
# [12] = tested on: STAT3; test: Inflammatory gene expression, RT-PCR: STAT3; format: cell-based; details: A: Normal mouse cells; control = 1
# [13] = tested on: Th17 cells; test: Inhibition of Th17 cells, flow cytometry; format: cell-based, mouse
# [14] = tested on: Treg cells; test: Treg cell-induced activity, flow cytometry; format: cell-based, mouse; details: TCR condition
# [15] = tested on: osteoclasts; test: Inhibition of differentiation of osteoclasts, TRAP staining; format: cell-based, mouse; details: M-CSF and RANKL
# [16] = tested on: cells in each test group disclosed in Table 3; test: Cytotoxicity analysis (MTT assay); format: cell-based, mouse; human; details: treatment for each concentration, 72 hrs; normal cells and disease-group cells; compared with control or metformin-treated group
# Method: In order to verify whether the compounds synthesized in the present invention causes the cytotoxicity in the cells, an MTT assay was performed, target cells were divided to be the number of 2×10^5 cells per well on a 96 well plate, treated with the compounds of the present invention for each concentration, incubated for 72 hrs, added with an MTT solution (0.5% 3-4,5-dimethyl thiazol-2-yl)-2,5-diphenyl-2H-tetrazolium bromide), and incubated for 4 hrs again. Thereafter, absorbance at 540 nm was measured by an enzymelinked immunospecific assay (ELISA) meter to observe the cytotoxicity.
# In order to verify whether the novel compounds synthesized in Example 1 have the cytotoxicity, a cell survival rate was verified through the MTT assay by targeting cells in each test group disclosed in Table 3 above. That is, the cells of each test group were divided according to the number of 2×10^5 cells per well and treated with the novel synthesized compounds of the present invention for each concentration, and the cell survival rate was analyzed.
structure (smiles),measurement,setting,value
"CCN(C(=N)NC(=N)N)c1ccc(F)c(F)c1 [SD-281, N-(3,4-Difluorophenyl)-N-ethylbiguanide]",Total IgG,[1]; A: Normal mouse cells,2.3 ng/mL
same,Total IgG,[1]; B: Rheumatoid arthritis cells,58.1 ng/mL
same,Total IgG,[1]; C: Lupus cells,124.5 ng/mL
same,IgG1,[2]; A: Normal mouse cells,83.8 ng/mL
same,IgG1,[2]; B: Rheumatoid arthritis cells,135.2 ng/mL
same,IgG1,[2]; C: Lupus cells,258.2 ng/mL
same,IgG2,[3]; A: Normal mouse cells,35.6 ng/mL
same,IgG2,[3]; B: Rheumatoid arthritis cells,33.5 ng/mL
same,IgG2,[3]; C: Lupus cells,84.3 ng/mL
same,IL-17 production,[4]; A: Normal mouse cells,1.7 ng/mL
same,IL-17 production,[4]; B: Rheumatoid arthritis cells,2.2 ng/mL
same,IL-17 production,[4]; C: Lupus cells,0.6 ng/mL
same,IL-17 production,[5],0.1 ng/mL
same,IL-6 production,[6]; A: Normal mouse cells,1.4 ng/mL
same,IL-6 production,[6]; B: Rheumatoid arthritis cells,1.4 ng/mL
same,IL-6 production,[6]; C: Lupus cells,1 ng/mL
same,TNF-a production,[7]; A: Normal mouse cells,0.5 ng/mL
same,TNF-a production,[7]; B: Rheumatoid arthritis cells,0.4 ng/mL
same,TNF-a production,[7]; C: Lupus cells,0.7 ng/mL
same,IFN-r production,[8]; A: Normal mouse cells,5.8 ng/mL
same,IFN-r production,[8]; B: Rheumatoid arthritis cells,5.3 ng/mL
same,IFN-r production,[8]; C: Lupus cells,10 ng/mL
same,IFN-r production,[9],0.1 ng/mL
same,TNF-a gene expression,[10]; A: Normal mouse cells,0.2 gene expression
same,TNF-a gene expression,[10]; B: Rheumatoid arthritis cells,0.6 gene expression
same,TNF-a gene expression,[10]; C: Lupus cells,0.1 gene expression
same,MMP-9 gene expression,[11]; A: Normal mouse cells,0.5 gene expression
same,MMP-9 gene expression,[11]; B: Rheumatoid arthritis cells,0.4 gene expression
same,MMP-9 gene expression,[11]; C: Lupus cells,0.4 gene expression
same,STAT3 gene expression,[12],1.2 gene expression
same,Th17,"[13]; TCR condition, A: Normal mouse cells",1.2
same,Th17,"[13]; TCR condition, B: Rheumatoid arthritis cells",1.5
same,Th17,"[13]; TCR condition, C: Lupus cells",0.8
same,Th17,"[13]; Th17 condition (Th17 differentiation condition), A: Normal mouse cells",0.4
same,Treg,[14]; A: Normal mouse cells,2
same,Treg,[14]; B: Rheumatoid arthritis cells,4.6
same,Treg,[14]; C: Lupus cells,2.8
same,TRAP + Cell,[15]; A: Normal mouse cells,196
same,TRAP + Cell,[15]; B: Rheumatoid arthritis cells,57
same,"cytotoxicity (cell survival rate, MTT)",[16],cytotoxicity was not observed

# Reference: patent publication US10100006B2, “Compound having immune disease treatment effect and use thereof” (THE CATHOLIC UNIVERSITY OF KOREA INDUSTRY—ACADEMIC …, priority 2014, dated 2018)
